Test results from US7153815B2, “Insecticide containing hydrazone derivative as the active ingredient and novel hydrazone derivative” (Nihon Nohyaku Co., Ltd., priority 2002, dated 2006).

Assays:
[1] = system: larvae of cabbage moth (Plutella xylostera); assay: Insecticidal effect against larvae of cabbage moth (leaf immersion); format: in vivo
Experimental: Insecticidal Effect Against Larvae of Cabbage Moth (Plutella xylostera)
(§1) A piece of cabbage leaf (diameter: 6 cm) was immersed for 1 minute in a water-diluted solution of the insecticide (wettable powder) of the present invention prepared according to the prescription of Formulation Example 1. After immersion, the cabbage was air-dried and placed in a plastic cup (inner diameter: 7 cm), and then inoculated with 5 larvae of cabbage moth in the third stage therein (1-concentration, 2-repetion). The cup was allowed to stand in a room thermostated at 25° C. Four days after the inoculation, dead or alive larvae or suffuring larvae were counted, and mortality (%) was calculated wherein a suffering larva was regarded as 0.5 dead larva. When compounds of Compound Nos. described below were subjected to the test, the mortality was 100% in a compound concentration of 500 ppm. In the meanwhile, the Compounds Nos. correspond to ones in Tables 1 to 8.

[2] = system: larvae of common cutworm (Spodoptera litura); assay: Insecticidal effect against larvae of common cutworm (leaf immersion); format: in vivo; conditions: in Brassica oleracea
Experimental: Insecticidal Effect Against Larvae of Common Cutworm (Spodoptera litura)
as §1, with “powder),of” for “powder) of”, “common cutworm” for “cabbage moth”

SMILES | mortality at 500 ppm [1] [%] | mortality at 500 ppm [2] [%]
O=C(NCc1ccc(Cl)nc1)C(Cl)=NNc1ccc(C(F)(F)F)cc1 [Compound No. 5, N-(6-chloro-3-pyridylmethyl)-2-chloro-2-(4-trifluoromethylphenyl hydrazono) acetic acid amide] | 100 | –
CC(=NNc1ccc(C(F)(F)F)cc1)C(=O)NCc1ccc(Cl)cc1 [Compound No. 62, N-(4-chlorobenzyl)-2-(4-trifluoromethylphenyl hydrazono) propionic acid amide] | 100 | 100
CC(=NNc1ccc(C(F)(F)F)cc1)C(=O)NCc1ccc(Cl)nc1 [Compound No. 63, N-(6-chloro-3-pyridylmethyl)-2-(4-trifluoromethylphenyl hydrazono) propionic acid amide] | 100 | 100
COc1ccc(CNC(=O)C(C)=NNc2ccc(Cl)cc2)cc1 [Compound No. 93, N-(4-methoxybenzyl)-2-(4-chlorophenyl hydrazono) propionic acid amide] | 100 | –
C/C(=N\Nc1ccc(Cl)cc1)C(=O)NNc1ccc(Cl)cc1 [Compound No. 104, (E)-N′-(4-chlorophenyl)-2-(4-chlorophenyl hydrazono) propionic acid hydrazide] | 100 | 100
C/C(=N/Nc1ccc(Cl)cc1)C(=O)NNc1ccc(Cl)cc1 [Compound No. 105, (Z)-N′-(4-chlorophenyl)-2-(4-chlorophenyl hydrazono) propionic acid hydrazide] | 100 | 100
CC(=NN(C)c1ccc(C(F)(F)F)cc1)C(=O)NCc1ccc(Cl)cc1 [Compound No. 109, N-(4-chlorobenzyl)-2-[N-methyl-N-(4-trifluoromethylphenyl) hydrazono]propionic acid amide] | 100 | 100
CC(=NN(C)c1ccc(C(F)(F)F)cc1)C(=O)NCc1ccc(Cl)nc1 [Compound No. 110, N-(6-chloro-3-pyridylmethyl)-2-[N-methyl-N-(4-trifluoromethylphenyl) hydrazono]propionic acid amide] | 100 | 100
CCOCC(=NNc1ccc(C(F)(F)F)cc1)C(=O)NCc1ccc(Cl)nc1 [Compound No. 170, N-(6-chloro-3-pyridylmethyl)-3-ethoxy-2-(4-trifluoromethylphenyl hydrazono) propionic acid amide] | 100 | –
N#CC(=NNc1ccc(C(F)(F)F)cc1)C(=O)NCc1ccc(Cl)nc1 [Compound No. 184, N-(6-chloro-3-pyridylmethyl)-2-cyano-2-(4-trifluoromethylphenyl hydrazono) acetic acid amide] | 100 | 100
CNC(=NNc1ccc(C(F)(F)F)cc1)C(=O)NCc1ccc(Cl)nc1 [Compound No. 191, N-(6-chloro-3-pyridylmethyl)-2-methylamino-2-(4-trifluoromethylphenyl hydrazono) acetic acid amide] | 100 | 100
